The source of these data is ChEMBL document CHEMBL1128320 (J Med Chem, 1995).

The target in data set [1] is T1, Steroid 17-alpha-hydroxylase/17,20 lyase (Homo sapiens, UniProt P05093).
T1 sequence (P05093 whole entry): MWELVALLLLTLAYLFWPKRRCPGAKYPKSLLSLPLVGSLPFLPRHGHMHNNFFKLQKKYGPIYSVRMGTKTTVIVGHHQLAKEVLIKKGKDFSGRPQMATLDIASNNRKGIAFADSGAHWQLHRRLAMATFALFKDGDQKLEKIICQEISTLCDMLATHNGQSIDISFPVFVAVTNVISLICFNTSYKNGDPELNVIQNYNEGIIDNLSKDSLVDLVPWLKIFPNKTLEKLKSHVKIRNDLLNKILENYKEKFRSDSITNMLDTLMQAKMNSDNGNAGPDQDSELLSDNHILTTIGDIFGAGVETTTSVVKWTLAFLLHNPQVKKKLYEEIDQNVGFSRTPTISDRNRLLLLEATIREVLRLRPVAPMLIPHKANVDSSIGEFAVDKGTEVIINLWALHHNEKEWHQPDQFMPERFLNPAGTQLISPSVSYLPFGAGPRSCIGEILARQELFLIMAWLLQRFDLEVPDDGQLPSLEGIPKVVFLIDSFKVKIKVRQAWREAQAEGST

Data set [2] concerns the target T2, Steroid 17-alpha-hydroxylase/17,20 lyase (Rattus norvegicus, UniProt P11715).
T2 sequence (P11715 whole entry): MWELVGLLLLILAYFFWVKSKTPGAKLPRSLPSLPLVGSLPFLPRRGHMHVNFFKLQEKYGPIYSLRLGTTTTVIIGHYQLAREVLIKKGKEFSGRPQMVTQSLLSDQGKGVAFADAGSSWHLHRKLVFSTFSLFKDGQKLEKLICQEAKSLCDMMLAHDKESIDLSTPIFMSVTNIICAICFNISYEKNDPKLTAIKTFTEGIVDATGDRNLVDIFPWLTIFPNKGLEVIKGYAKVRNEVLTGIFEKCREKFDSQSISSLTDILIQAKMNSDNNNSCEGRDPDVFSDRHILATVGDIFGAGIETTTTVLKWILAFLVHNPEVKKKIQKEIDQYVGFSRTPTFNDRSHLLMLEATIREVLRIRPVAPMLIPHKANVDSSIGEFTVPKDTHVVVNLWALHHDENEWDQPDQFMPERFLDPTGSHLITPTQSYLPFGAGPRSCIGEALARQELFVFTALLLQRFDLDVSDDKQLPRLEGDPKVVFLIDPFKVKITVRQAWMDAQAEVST

The target of data set [3] is T1, Steroid 17-alpha-hydroxylase/17,20 lyase. The source holds these as a separate data set.
For data set [4], the target named is T2, Steroid 17-alpha-hydroxylase/17,20 lyase. This is another data set of the same source.
For a further data set, the system named is esterase. The data set can be described thus: in vitro. To be noted: rat, in vivo.

pIC50: −log10 of the molar value.

Description for esterase: Hydrolysis rate by rat liver microsomal esterase

Turning to `C[C@@H]1C(OC(=O)Cc2cccnc2)CC2CC1C2(C)C` (stereo not given in full), the pIC50 is 7.06 in data set [1], 6.28 in data set [2], 6.59 in data set [3] and 6.34 in data set [4]. The half-life with esterase worked out at 16 min.

`CC(C(=O)OC1CC2CC([C@@H]1C)C2(C)C)c1cccnc1` (stereo not given in full): the figures for the pIC50 in data set [1] and in data set [3] were 7.85 and 7.09, respectively. The half-life with esterase stood at 50 min.

As to `C[C@@H]1C(OC(=O)Cc2ccncc2)CC2CC1C2(C)C` (stereo not given in full), the pIC50 in data set [1] was 8.30; in data set [2], 6.55; in data set [3], 7.85; in data set [4] it was 6.59. In addition, the half-life with esterase turned out to be 17.5 min.

Consider `CCC(CC)(C(=O)OC1CC2CC([C@@H]1C)C2(C)C)c1ccncc1` (stereo not given in full), for which the values for the pIC50 in data set [1] and in data set [3] were 7.46 and 6.85, respectively.

Consider `CC(C(=O)OC1CC2CC([C@@H]1C)C2(C)C)c1ccncc1` (stereo not given in full), for which the pIC50 was 8.22 in data set [1] and 7.72 in data set [3]. This compound registered a half-life in the data set on esterase of 100 min.

With `CC(C)(C(=O)OC12CC3CC(CC(C3)C1)C2)c1cccnc1`, the pIC50 is 7.89 in data set [1] and 7.05 in data set [3].

Regarding `C[C@@H]1CCC2C(C)(C)C3CC21CC[C@@]3(C)OC(=O)Cc1ccncc1` (stereo not given in full), the pIC50 is 7.28 in data set [1] and 6.57 in data set [3].

As for `CC(C(=O)OC12CC3CC(CC(C3)C1)C2)c1cccnc1` (stereo not given), the pIC50 was 7.46 in data set [1] and 6.66 in data set [3].

As to `C[C@@H]1C(OC(=O)Cc2ccccn2)CC2CC1C2(C)C` (stereo not given in full), the pIC50 in data set [1] and in data set [3] was less than 6.00 throughout.

Consider `O=C(Cc1cccnc1)OC12CC3CC(CC(C3)C1)C2`, for which the pIC50 in data set [1] is 6.89; in data set [3], 6.03.

Consider `C[C@@H]1C(OC(=O)C(C)(C)c2ccncc2)CC2CC1C2(C)C` (stereo not given in full), for which the pIC50 was 8.00 in data set [1] and 7.59 in data set [3].

On to `C[C@@H]1CCC2C(C)(C)C3CC21CC[C@@]3(C)OC(=O)Cc1cccnc1` (stereo not given in full), for which the pIC50 in data set [1] is 7.42; in data set [3], 6.64.

Take `CC(C)(C(=O)OC1(C)C2CC3CC(C2)CC1C3)c1cccnc1` (stereo not given): the pIC50 in data set [1] was 7.89; in data set [3], 7.12.

Consider `CC1(OC(=O)Cc2cccnc2)C2CC3CC(C2)CC1C3` (stereo not given), for which the pIC50 in data set [1] was 6.49; in data set [3], 5.72.

With `CCC(C(=O)OC1CC2CC([C@@H]1C)C2(C)C)c1ccncc1` (stereo not given in full), the results for the pIC50 in data set [1] and in data set [3] were 8.05 and 7.47, respectively. This compound came in with a half-life in the data set with esterase of 88 min.

For the compound `C[C@@H]1C(OC(=O)C(C)(C)c2cccnc2)CC2CC1C2(C)C` (stereo not given in full), the pIC50 in data set [1] was 7.82; in data set [2] it was 7.28; in data set [3], 7.54; in data set [4], 7.33.

With `C[C@@H]1CCC2C(C)(C)C3CC21CC[C@@]3(C)OC(=O)C(C)(C)c1cccnc1` (stereo not given in full), the pIC50 in data set [1] was 6.17; in data set [3] it was 5.40.
